# In US9682028B2, “Personal care photoprotective compositions with tricyclodecane amides” (Conopco, Inc., priority 2013, dated 2017):
# Like-named read-outs stand apart in the source and are kept apart here.
# Assays:
# human sebocytes = assay: Sebocyte assay (sebum suppression, 14C-acetate incorporation); type: cell-based; settings: for inhibition at 10 µM: read-out: % Reduction at 10 microMolar; for inhibition at 100 µM: read-out: % Reduction at 100 microMolar
# Procedure: Sebum suppression effect of the tricyclodecane amides suitable for use in the present invention was investigated.
# Secondary cultures of human sebocytes obtained from an adult […] were grown in 96-well tissue culture plates (Packard) until three days post-confluence. Sebocyte growth medium consisted of Clonetics Keratinocyte Basal Medium (KBM) supplemented with 14 μg/ml bovine pituitary extract, 0.4 μg/ml hydrocortisone, 5 μg/ml insulin, 10 ng/ml epidermal growth factor, 1.2×10^−10 M cholera toxin, 100 units/ml penicillin, and 100 μg/ml streptomycin. All cultures were incubated at 37° C. in the presence of 5% CO2. Medium was changed three times per week.
# On the day of experimentation, the growth medium was removed and the sebocytes washed three times with sterile Dulbecco's Modified Eagle Medium (DMEM; phenol red free). Fresh DMEM was added to each sample (triplicates) with 5-microliters of test agent solubilized in ethanol. Controls consisted of addition ethanol alone. Each plate was returned to the incubator for 20-hours followed by the addition of ^14C-acetate buffer (5 mM final concentration, 56 mCi/mmol specific activity). Sebocytes were returned to the incubator for 4-hours after which each culture was rinsed 3-times with phosphate buffered saline to remove unbound label. Radioactive label remaining in the sebocytes was determined using a Packard Microbeta, scintillation counter. Phenol Red, a known sebum suppressive agent, was employed as a positive control.
# [1] = In vitro SPF evaluation (Optometric 290S SPF meter, PMMA plate); type: physicochemical; settings: summary of Table 2
# Procedure: SPF, UV-A, and UV-B improvement of compositions within the scope of the invention was investigated.
# In vitro SPF measurement was done using the Optometric 290S SPF meter. The product was applied at a dosage of 2 mg/cm^2 on PMMA (polymethylmethacrylate) plate (7 cm×7 cm) and allowed to air dry for 30 minutes. The average SPF value was obtained from 6 SPF readings per plate. Two duplicated runs, the standard deviation from the average was ±2 SPF units. % increase of in vitro SPF versus control calculation: (measured SPF for selected formulation−measured SPF of control)/measured SPF of control×100.
# [2] = In vitro MPF evaluation (monochromatic protection factor); type: physicochemical; settings: summary of Table 4
# Procedure: MPF=monochromatic protection factor=1/Transmittance at a specific wavelength (lower transmittance gives higher MPF therefore higher absorption for the sunscreen). 305 nm=UVB, 360 nm=UVA. MPF was measured using the same apparatus as SPF above. MPF % increase over control (measured MPF at 305 nm and 360 nm for selected formulation−measured MPF at 305 nm and 360 nm of control)/measured MPF at 305 nm and 360 nm of control×100.
# [3] = 10 microMolar test agent, 20 h incubation then 4 h 14C-acetate, radioactive label remaining in sebocytes
# [4] = 100 microMolar test agent, 20 h incubation then 4 h 14C-acetate, radioactive label remaining in sebocytes
SMILES,inhibition at 10 µM (human sebocytes; [3]),inhibition at 100 µM (human sebocytes; [4]),further results
"O=S1(=O)OC(c2ccc(O)cc2)(c2ccc(O)cc2)c2ccccc21 [Phenol Red, reference compound]",17.1%,65.1%,–
"O=C(N1CCC2CCCCC2C1)C12CC3CC(CC(C3)C1)C2 (stereo not drawn) [Compound C9, Methanone, (decahydroisoquinolinyl)tricyclo[3.3.1.1^3,7]dec-1-yl-]",81.2%,86.8%,–
"CC1CCN(C(=O)C23CC4CC(CC(C4)C2)C3)CC1 [Compound C13, Methanone, (4-methyl-1-piperidinyl)tricyclo[3.3.1.1^3,7]dec-1-yl]",63.5%,90.4%,–
"CC(C)(C)CC(C)(C)NC(=O)C12CC3CC(CC(C3)C1)C2 [Compound C21, Methanone, (1,1-dimethyl-3,3-dimethylbutylaminyl)tricyclo[3.3.1.1^3,7]dec-1-yl-]",26.4%,43.5%,–
"O=C(N1CCOCC1)C12CC3CC(CC(C3)C1)C2 [Compound C1, Methanone, (morphonyl)tricyclo[3.3.1.1^3,7]dec-1-yl-]",35.4%,78.5%,–
"CCC1(C)CCN(C(=O)C23CC4CC(CC(C4)C2)C3)CC1 [Compound C16, Methanone, (4-methyl-4-ethy-piperidinyl)tricyclo[3.3.1.1^3,7]dec-1-yl-]",49.8%,80.7%,–
"CC(C)N(C(=O)C12CC3CC(CC(C3)C1)C2)C(C)C [Compound C18, Methanone, (N,N-diisopropyl)tricyclo[3.3.1.1^3,7]dec-1-yl-]",–,–,inhibition at 10 µM (human sebocytes): 42%; inhibition at 100 µM (human sebocytes): 52.5%
"O=C(N1CCCC2CCCCC21)C12CC3CC(CC(C3)C1)C2 (stereo not drawn) [Compound C10, Methanone, (decahydroquinolinyl)tricyclo[3.3.1.1^3,7]dec-1-yl-]",63.4%,89.6%,–
"CC(C)(C)CCNC(=O)C12CC3CC(CC(C3)C1)C2 [Compound C19, Methanone, (3,3-dimethylbutylaminyl)tricyclo[3.3.1.1^3,7]dec-1-yl-]",35.9%,–,–
"O=C(N1CCCCC1)C12CC3CC(CC(C3)C1)C2 [Compound C2, Methanone, (piperidiny)tricyclo[3.3.1.1^3,7]dec-1-yl-]",34.3%,51.6%,–
"O=C(N1CCC1)C12CC3CC(CC(C3)C1)C2 [Compound C4, Methanone, (azetidinyl)tricyclo[3.3.1.1^3,7]dec-1-yl-]",–,–,inhibition at 10 µM (human sebocytes): 16.3%; inhibition at 100 µM (human sebocytes): 27.9%
"NC(=O)C1CCN(C(=O)C23CC4CC(CC(C4)C2)C3)CC1 [Compound C7, Methanone, (4-amido-piperidinyl)tricyclo[3.3.1.1^3,7]dec-1-yl-]",58.9%,73.4%,–
"CC(C)CC(C)NC(=O)C12CC3CC(CC(C3)C1)C2 (stereo not drawn) [Compound C22, Methanone, (1,3-dimethyl-butylaminyl)tricyclo[3.3.1.1^3,7]dec-1-yl-]",–,–,inhibition at 10 µM (human sebocytes): 29.1%; inhibition at 100 µM (human sebocytes): 45.3%
"CC1(C)CCCN(C(=O)C23CC4CC(CC(C4)C2)C3)C1 [Compound C11, Methanone, (3,3-dimethyl-1-piperidinyl)tricyclo[3.3.1.1^3,7]dec-1-yl]",39.3%,76.6%,–
"CCC1(CC)CCN(C(=O)C23CC4CC(CC(C4)C2)C3)C1 [Compound C17, Methanone, (3,3-diethyl-pyrrolidinyl)tricyclo[3.3.1.1^3,7]dec-1-yl-]",32.2%,65.2%,–
"CC(C)(C)CNC(=O)C12CC3CC(CC(C3)C1)C2 [Compound C20, Methanone, (2,2-dimethylpropylaminyl)tricyclo[3.3.1.1^3,7]dec-1-yl-]",49.5%,82.8%,–
CCCCCCCCCCCCCCCCCC(N)=O [octadecanamide],–,–,SPF protection improvement (in words) [1]: did not achieve these improvements; UV-A and UV-B protection improvement (in words) [2]: did not achieve these improvements
"O=C(N1CCCCCC1)C12CC3CC(CC(C3)C1)C2 [Compound C5, Methanone, (hexahydroazepinyl)tricyclo[3.3.1.1^3,7]dec-1-yl-]",32.4%,50.5%,–
"CC1CC(C)CN(C(=O)C23CC4CC(CC(C4)C2)C3)C1 (stereo not drawn) [Compound C15, Methanone, (3,5-dimethyl-1-piperidinyl)tricyclo[3.3.1.1^3,7]dec-1-yl-]",40.1%,71%,–
"CC1CCCN(C(=O)C23CC4CC(CC(C4)C2)C3)C1 (stereo not drawn) [Compound C14, Methanone, (3-methyl-1-piperidinyl)tricyclo[3.3.1.1^3,7]dec-1-yl]",–,–,inhibition at 10 µM (human sebocytes): 52.8%; inhibition at 100 µM (human sebocytes): 76%
"O=C(NC12CC3CC(CC(C3)C1)C2)C12CC3CC(CC(C3)C1)C2 [Compound C8, Methanone, (Tricyclo[3.3.1.1^3,7]decanyl)-N-tricyclo[3.3.1.1^3,7]dec-1-yl-]",19.1%,58.8%,–
"CC1CCCCN1C(=O)C12CC3CC(CC(C3)C1)C2 (stereo not drawn) [Compound C12, Methanone, (2-methyl-1-piperidinyl)tricyclo[3.3.1.1^3,7]dec-1-yl-]",–,–,inhibition at 10 µM (human sebocytes): 24.5%; inhibition at 100 µM (human sebocytes): 51%
"N#CC1CCN(C(=O)C23CC4CC(CC(C4)C2)C3)CC1 [Compound C6, Methanone, (4-cyano-piperidinyl)tricyclo[3.3.1.1^3,7]dec-1-yl]",24.8%,39.4%,–
